Test [1] has as its target purified salivary receptor. As to the kind of experiment: BIAcore direct binding to immobilised purified salivary receptor. Set-up: species or system human. The conditions noted are these: dissociation rate constant. How it is done:
SA I/II and recombinant polypeptides were prepared as described above. Salivary receptor was prepared by absorption of whole saliva with intact cells of S. mutans (Lee et al (1989) Infect. Immun. 57:3306-3313). The cells were washed with KPBS (2.7 mM KCl, 137 mM NaCl in 1.5 mM KH2PO4, 6.5 mM Na2HPO4, pH 7.2)and adsorbed material was eluted with 1 mM EDTA in KPBS. Analysis of the purified material by polyacrylamide gel electrophoresis in the presence of Na dodecyl sulphate indicated the presence of components of Mr>200,000 and approximately 40,000. Peptides were prepared by the simultaneous multiple peptide synthesis procedure (Houghten (1985) Proc. Natl. Acad. Sci. USA 82: 5131-5135) as above. In addition, a series of peptides was synthesised corresponding to residues 1025-1044 in which each residue in turn was substituted by alanine.
(§1) Purified SA I/II or salivary receptor was immobilised on the sensor chip surface at a concentration of 100 μg/ml in 10 mM Na formate pH 3.5 using the amine coupling kit (Pharmacia Biosensor).
Purified salivary receptor was immobilised on the sensor chip and binding of SA I/II or purified recombinant polypeptide fragments was determined.

Test [2] relates to human serum IgG antibodies. As to the kind of experiment: ELISA for serum antibodies. It is filed as binding. The conditions noted are these: sera from 22 individuals. How it is done:
ELISA for serum antibodies. Antibody recognition of synthetic peptides was determined by ELISA. Peptides (10 μg/ml) in phosphate buffered saline (PBS) were adsorbed to wells of polystyrene microtitre plates (Dynatech) for 2h at room temperature. Plates were washed and wells were treated with 1.5% (w/v) bovine serum albumen (BSA) for 1 h at room temperature to block unbound sites. After washing, bound peptides were incubated with serially diluted sera in duplicate. Bound IgG antibodies were determined by incubation with alkaline phosphate conjugated-goat anti-human Ig (Sigma Chemical Co.) and subsequent reaction with paranitrophenyl phosphate (Sigma Chemical Co.). Plates were read at 405 nm using the microplate reader model 450 (Bio-Rad). After initial screening, the assay was repeated at least 3 times with each serum using a restricted set of peptides. SA I/II (2 μg/ml) was included in each assay as was an irrelevant peptide ([…](SEQ. ID. No. 27) derived from the sequence of SIV p27. Results are expressed as the highest dilution giving an absorbance ≧0.2.

Test [3] has as its system draining lymph node cells. As to the kind of experiment: Proliferation of lymph node cells of mice immunised with recombinant 975-1044. As to conditions: all mouse strains. It is filed as cell-based. How it is done:
i) Groups of mice (3-4 per group) were immunised with 975-1044 (SEQ. ID. No. 8) by two routes:
(§2) a) intraperitoneally with 50 μg polypeptide in incomplete Freund's adjuvant with a boost after 4 weeks (also 50 μg in incomplete Freund's adjuvant and intraperitoneally).
b) subcutaneously. A single immunisation with 50 μg polypeptide in incomplete Freund's adjuvant.
ii) Draining lymph nodes were removed 10 to 14 days after immunisation, pooled and homogenised to give a single cell suspension in RPMI 1640 culture medium supplemented with 2 mM glutamine, 1 mM pyruvate, […] 2-mercaptoethanol, 100 u/ml penicillin, 100 μg/ml streptomycin, 100 mM HEPES and 5% foetal calf serum. Cells (2×10^5/well) were cultured with antigen and proliferation was measured by incorporation of [^3H]-thymidine as described above. Antigens were SA I/II recombinant polypeptides, peptides spanning residues 975-1044 and a control protein fraction from E. coli harbouring non-recombinant plasmid.

Test [4] concerns lymphoproliferative response to SA I/II. As to the kind of experiment: MHC dependency of proliferative responses to SA I/II (inhibition by MAbs). As to conditions: antigen 10 μg/ml. It is filed as cell-based, human. As for the experimental part:
MHC dependency of proliferative responses to SA I/II was determined by culturing cells with antigen (10 μg/ml) as above in the presence of MAbs L235, W6/32 or ID4 at 1, 10 and 20 μg/ml. Cultures were incubated with [3H]-thymidine, harvested and [^3H]-thymidine uptake was determined as described above.

Test [5] has as its system receptors in whole saliva. Description: BIAcore inhibition of binding of immobilised SA I/II to receptors in whole saliva. Further details: species or system human. The conditions noted are these: 6 μM inhibitor in fluid phase saliva; 5 mM calcium. As for the experimental part: as §1
Binding of immobilised SA I/II to receptors in whole saliva was determined in the absence and presence of inhibitors (at varying concentrations). Inhibition by alanine-substituted peptides was analysed at a peptide concentration of 50 μM. The running buffer was HEPES buffered saline (HBS) and the surface was regenerated with 100 mM HCl.

Test [6] deals with Sera from mice immunised intraperitoneally with polypeptide 975-1044. Description: Antibody recognition by sera of mice immunised with polypeptide 975-1044. The class given is binding. As for the experimental part:
as §2
Sera from mice immunised intraperitoneally with polypeptide 975-1044 recognised intact cells of S.mutans, intact SA I/II and recombinant 975-1044. Peptides 995-1014 and 1025-1044 were also recognised.

For the next test, the system named is human sera. As to the kind of experiment: Western blotting of serum antibody responses. The class given is binding. The conditions noted are these: panel a. As for the experimental part:
Western blotting. Serum antibody responses were also assayed by Western blotting using SA I/II, the recombinant polypeptides and a control fraction from E. coli BL21 harbouring non-recombinant pET15b. Purified antigens were separated by sodium dodecyl sulphate-polyacrylamide gel electrophoresis (SDS-PAGE) with gels of 10% acrylamide, by using a mini-gel system (Hoeffer Scientific Instruments, San Francisco, Co, USA). Proteins were transferred to nitrocellulose with a semi-dry blotter (Sartorius A. G., Gottingen, Germany). Nitrocellulose strips were blocked with 5% (wt/vol) nonfat milk powder 2.5% (wt/vol) BSA in Tris-HCl-buffered saline (pH 8.0) containing 0.05% (wt/vol) Tween 20. Strips were subsequently incubated with human sera (1 in 20 dilution) or rabbit anti-SA I/II antiserum (10^−4 dilution) and bound antibody was visualised by using alkaline phosphatase-conjugated secondary antibody with 5-bromo-4-chloro-3-indolylphosphate and nitroblue tetrazolium (Sigma Chemical Co.) as substrates. Each sera was assayed three times and responses were considered as positive if bands were visible in at least two assays.

Consider “SA I/II: S. mutans I/II antigen, a cell surface protein with an Mr of about 185 kDa, purified from S. mutans Guy's strain”, for which the kd in test [1] turned out to be 0.02 s⁻¹. In test [2], the “serum antibody recognition / B cell epitope” value is recorded as “recognised by all subjects”. In test [2] (highest dilution giving absorbance ≧0.2), the “mean log2 titre” value is listed as 7.6±1.2 log2 titre. Moreover, in test [3], the “proliferative response (positive: stimulation index ≧3.0, cpm>500)” value is “responded”. In addition, the “SI of response to SA I/II without MAb” value in test [4] worked out at 10.0±3.2. In addition, the inhibition of binding result in test [5] is “approximately 90%”. The “Antibody recognition, log2 titres” value in test [6] (strain BALB/C) is listed as 2.8 log2 titres (1 = 1:50); in test [6] (strain DBA/1) it was 2.7 log2 titres (1 = 1:50); in test [6] (strain SJL), 4.0 log2 titres (1 = 1:50). Moreover, the “recognition in Western blot” value with human sera is “recognised strongly”.

(Values after US6500433B1, “Polypeptide fragments capable of competition with Streptococcus mutans antigen I/II” (The Council of Governors of the United Medical & Dental …, priority 1995, dated 2002).)
